Read-outs that look alike come from different tables or passages of the source. *1 amine or outer side, *2 acyl side, *3 side chain or, on linkers, in order; H or OH if unused. Where a SMILES comes first, the peptide text is derived from it. Side-chain parts run from the residue outwards. [ ]: non-standard residue; d: D form. The star is where a group is joined. αMePhe(2-F) = C[C@](N)(Cc1ccccc1F)C(=O)O; γGlu = O=C(O)[C@H](CCC(=O)[*:2])N[*:1]; αMeY = C[C@](N)(Cc1ccc(O)cc1)C(=O)O; 4Pal = N[C@@H](Cc1ccncc1)C(=O)O; αMeL = CC(C)C[C@](C)(N)C(=O)O; Lauroyl = CCCCCCCCCCCC(=O)*; Orn = NCCC[C@H](N)C(=O)O; AEEA = NCCOCCOCC(=O)O; Aib = CC(C)(N)C(=O)O
Key:
Assay type in all cases: cell-based
[1] = biological target: hGLP-1R (Homo sapiens, UniProt P43220); assay: Functional cAMP formation (HTRF) in HEK-293 clonal cells expressing hGLP-1R, 0.1% bovine casein, without or with 1.0% human serum albumin; parameters: expressed in transfected cells; conditions: 37° C.; for Emax: percent of maximal response to GLP-1(7-36)NH2, read-out: hGLP-1R Emax, % ± SEM; for EC50: read-out: hGLP-1R EC50, nM (SEM, n)
hGLP-1R, sequence (P43220 24-463): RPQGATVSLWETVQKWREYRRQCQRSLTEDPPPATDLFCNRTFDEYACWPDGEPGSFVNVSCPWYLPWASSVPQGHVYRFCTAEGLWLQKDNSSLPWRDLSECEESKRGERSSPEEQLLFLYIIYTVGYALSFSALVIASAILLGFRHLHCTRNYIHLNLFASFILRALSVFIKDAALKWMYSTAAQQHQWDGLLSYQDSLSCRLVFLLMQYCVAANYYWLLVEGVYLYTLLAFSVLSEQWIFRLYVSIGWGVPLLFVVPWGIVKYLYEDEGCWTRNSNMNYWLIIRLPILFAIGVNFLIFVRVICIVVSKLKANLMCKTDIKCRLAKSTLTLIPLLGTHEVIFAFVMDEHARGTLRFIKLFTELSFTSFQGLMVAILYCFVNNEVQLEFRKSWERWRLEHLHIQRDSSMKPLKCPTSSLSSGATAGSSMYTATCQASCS
Procedure, shortened: (§1)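 Readings of the HTRF 665/620 nm ratio, which falls as cAMP rises, were converted to nM cAMP using a standard curve after 30 min peptide exposure at 37° C.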

[2] = biological target: T1, hGCGR (Homo sapiens, UniProt P47871); assay: Functional cAMP formation (HTRF) in HEK-293 clonal cells expressing hGCGR, 0.1% bovine casein, without or with 1.0% human serum albumin; conditions: 37° C., read-out: hGCGR EC50, nM (SEM, n)
T1 construct: expressed in transfected cells
T1 sequence (P47871 26-477): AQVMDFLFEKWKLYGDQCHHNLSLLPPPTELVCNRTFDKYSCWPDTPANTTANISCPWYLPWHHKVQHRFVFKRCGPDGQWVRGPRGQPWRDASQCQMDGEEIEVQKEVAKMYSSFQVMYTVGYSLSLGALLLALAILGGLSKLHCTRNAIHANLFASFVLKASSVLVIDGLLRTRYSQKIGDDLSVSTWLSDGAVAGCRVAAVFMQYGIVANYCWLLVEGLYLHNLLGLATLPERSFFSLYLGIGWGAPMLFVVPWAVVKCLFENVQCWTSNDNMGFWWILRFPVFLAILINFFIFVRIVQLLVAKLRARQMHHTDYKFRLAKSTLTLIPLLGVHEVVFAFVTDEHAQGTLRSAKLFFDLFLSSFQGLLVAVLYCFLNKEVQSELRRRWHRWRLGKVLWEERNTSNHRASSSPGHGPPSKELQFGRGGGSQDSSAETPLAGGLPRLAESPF
Procedure, shortened: as §1

[3] = biological target: T2, hGIPR (Homo sapiens, UniProt P48546); assay: Functional cAMP formation (HTRF) in HEK-293 clonal cells expressing hGIPR, 0.1% bovine casein, without or with 1.0% human serum albumin; conditions: 37° C.; for Emax: percent of maximal response to GIP(1-42)NH2, read-out: hGIPR Emax, % ± SEM; for EC50: read-out: hGIPR EC50, nM (SEM, n)
T2 construct: expressed in transfected cells
T2 sequence (P48546 22-466): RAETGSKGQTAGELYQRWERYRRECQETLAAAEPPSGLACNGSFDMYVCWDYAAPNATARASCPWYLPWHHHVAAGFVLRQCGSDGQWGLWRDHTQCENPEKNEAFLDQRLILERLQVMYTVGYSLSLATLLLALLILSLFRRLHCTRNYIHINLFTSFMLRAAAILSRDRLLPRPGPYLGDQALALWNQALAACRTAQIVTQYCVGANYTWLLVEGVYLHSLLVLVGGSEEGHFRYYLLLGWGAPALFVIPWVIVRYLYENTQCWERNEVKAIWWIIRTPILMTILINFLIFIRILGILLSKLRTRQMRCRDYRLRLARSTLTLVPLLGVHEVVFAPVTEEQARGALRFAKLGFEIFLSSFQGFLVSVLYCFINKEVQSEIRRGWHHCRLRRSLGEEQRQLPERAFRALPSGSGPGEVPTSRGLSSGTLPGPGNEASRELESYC
Procedure, shortened: as §1

[4] = HEK293, cAMP, 0.1% bovine casein and 1.0% human serum albumin
[5] = HEK293, cAMP, 0.1% bovine casein, arithmetic mean
[6] = cAMP, 0.1% bovine casein (no human serum albumin), geometric mean
[7] = cAMP, 0.1% bovine casein and 1.0% human serum albumin, geometric mean (SEM, n)
[8] = HEK293, 0.1% bovine casein and 1.0% human serum albumin
[9] = 0.1% bovine casein and 1.0% human serum albumin, geometric mean

| EC50 [1, 9] | Emax [3, 5] | Structure (SMILES) | Emax [1, 4] | Emax [1, 5] | EC50 [1, 6] | EC50 [2, 6] | EC50 [2, 7] | Emax [3, 4] | EC50 [3, 6] | Emax [1, 8] | EC50 [2, 9] | EC50 [3, 9] | Emax [3, 8] | EC50 [1, 7] | EC50 [3, 7] |
| --- | --- | --- | --- | --- | --- | --- | --- | --- | --- | --- | --- | --- | --- | --- | --- |
| – | – | CC[C@H](C)[C@H](NC(=O)[C@H](CC(C)C)NC(=O)[C@](C)(Cc1ccc(O)cc1)NC(=O)[C@H](CCCCNC(=O)COCCOCCNC(=O)COCCOCCNC(=O)[C@H]1CC[C@H](CNC(=O)CC[C@H](NC(=O)CCCCCCCCCCCCC(=O)O)C(=O)O)CC1)NC(=O)[C@@H](NC(=O)[C@H](Cc1ccccc1)NC(=O)[C@H](CCCN)NC(=O)C(C)(C)NC(=O)[C@H](CCC(N)=O)NC(=O)[C@H](C)NC(=O)[C@H](CCC(N)=O)NC(=O)[C@H](CCCN)NC(=O)[C@H](CC(=O)O)NC(=O)[C@H](CC(C)C)NC(=O)[C@](C)(CC(C)C)NC(=O)[C@@H](NC(=O)C(C)(C)NC(=O)[C@H](Cc1ccncc1)NC(=O)[C@H](CC(=O)O)NC(=O)[C@H](CO)NC(=O)[C@@H](NC(=O)[C@](C)(Cc1ccccc1F)NC(=O)[C@@H](NC(=O)CNC(=O)[C@H](CCC(=O)O)NC(=O)C(C)(C)NC(=O)[C@@H](N)Cc1ccc(O)cc1)[C@@H](C)O)[C@@H](C)O)[C@@H](C)CC)[C@@H](C)CC)C(=O)N[C@@H](CCCCNC(=O)COCCOCCNC(=O)COCCOCCNC(=O)[C@H]1CC[C@H](CNC(=O)CC[C@H](NC(=O)CCCCCCCCCCCCC(=O)O)C(=O)O)CC1)C(=O)NCC(=O)NCC(=O)N1CCC[C@H]1C(=O)N[C@@H](CO)C(=O)N[C@@H](CO)C(=O)NCC(=O)N[C@@H](C)C(=O)N1CCC[C@H]1C(=O)N1CCC[C@H]1C(=O)N1CCC[C@H]1C(=O)N[C@@H](CO)C(N)=O [Example 470] | 113% | 112% | 0.127 nM | > 9950 nM | > 9950 nM | 93.9% | 0.0103 nM | – | – | – | – | – | – |
| – | – | CCCCCCCCCCCC(=O)N[C@@H](CCC(=O)NCCOCCOCC(=O)NCCOCCOCC(=O)NCCCC[C@H](NC(=O)[C@H](CCCN)NC(=O)[C@H](CC(=O)O)NC(=O)[C@H](CC(C)C)NC(=O)[C@](C)(CC(C)C)NC(=O)[C@@H](NC(=O)[C@H](CO)NC(=O)[C@H](Cc1ccc(OC)cc1)NC(=O)[C@H](CC(=O)O)NC(=O)[C@H](CO)NC(=O)[C@@H](NC(=O)[C@](C)(Cc1ccccc1F)NC(=O)[C@@H](NC(=O)CNC(=O)[C@H](CCC(=O)O)NC(=O)C(C)(C)NC(=O)[C@@H](N)Cc1ccc(O)cc1)[C@@H](C)O)[C@@H](C)O)[C@@H](C)CC)C(=O)N[C@@H](C)C(=O)N[C@@H](CCC(N)=O)C(=O)NC(C)(C)C(=O)N[C@@H](CCC(=O)O)C(=O)N[C@@H](Cc1ccccc1)C(=O)N[C@H](C(=O)N[C@H](CCC(=O)O)C(=O)N[C@@](C)(Cc1ccc(O)cc1)C(=O)N[C@@H](CC(C)C)C(=O)N[C@H](C(=O)N[C@@H](CCCCNC(=O)COCCOCCNC(=O)COCCOCCNC(=O)CC[C@H](NC(=O)CCCCCCCCCCC)C(=O)O)C(=O)NCC(=O)NCC(=O)N1CCC[C@H]1C(=O)N[C@@H](CO)C(=O)N[C@@H](CO)C(=O)NCC(=O)N[C@@H](C)C(=O)N1CCC[C@H]1C(=O)N1CCC[C@H]1C(=O)N1CCC[C@H]1C(=O)N[C@@H](CO)C(N)=O)[C@@H](C)CC)[C@@H](C)CC)C(=O)O [Example 290] | – | – | – | > 9950 nM | – | – | – | 109% | > 9950 nM | 0.878 nM | 93.4% | – | – |
| – | – | CCCCCCCCCCCC(=O)N[C@@H](CCC(=O)NCCOCCOCC(=O)NCCOCCOCC(=O)NCCCC[C@H](NC(=O)[C@H](CCCN)NC(=O)[C@H](CC(=O)O)NC(=O)[C@H](CC(C)C)NC(=O)[C@](C)(CC(C)C)NC(=O)[C@@H](NC(=O)[C@H](CO)NC(=O)[C@H](CCc1ccc(O)cc1)NC(=O)[C@H](CC(=O)O)NC(=O)[C@H](CO)NC(=O)[C@@H](NC(=O)[C@](C)(Cc1ccccc1F)NC(=O)[C@@H](NC(=O)CNC(=O)[C@H](CCC(=O)O)NC(=O)C(C)(C)NC(=O)[C@@H](N)Cc1ccc(O)cc1)[C@@H](C)O)[C@@H](C)O)[C@@H](C)CC)C(=O)N[C@@H](C)C(=O)N[C@@H](CCC(N)=O)C(=O)NC(C)(C)C(=O)N[C@@H](CCC(=O)O)C(=O)N[C@@H](Cc1ccccc1)C(=O)N[C@H](C(=O)N[C@H](CCC(=O)O)C(=O)N[C@@](C)(Cc1ccc(O)cc1)C(=O)N[C@@H](CC(C)C)C(=O)N[C@H](C(=O)N[C@@H](CCCCNC(=O)COCCOCCNC(=O)COCCOCCNC(=O)CC[C@H](NC(=O)CCCCCCCCCCC)C(=O)O)C(=O)NCC(=O)NCC(=O)N1CCC[C@H]1C(=O)N[C@@H](CO)C(=O)N[C@@H](CO)C(=O)NCC(=O)N[C@@H](C)C(=O)N1CCC[C@H]1C(=O)N1CCC[C@H]1C(=O)N1CCC[C@H]1C(=O)N[C@@H](CO)C(N)=O)[C@@H](C)CC)[C@@H](C)CC)C(=O)O [Example 335] | – | 113% | 0.175 nM | > 9950 nM | > 9950 nM | 85.2% | – | – | – | – | – | 12.3 nM | 1.04 nM |
| 13 nM | 100% | CCCCCCCCCCCC(=O)N[C@@H](CCC(=O)NCCOCCOCC(=O)NCCOCCOCC(=O)NCCCC[C@H](NC(=O)[C@H](CCCN)NC(=O)[C@H](CC(=O)O)NC(=O)[C@H](CC(C)C)NC(=O)[C@](C)(CC(C)C)NC(=O)[C@@H](NC(=O)[C@H](CO)NC(=O)[C@H](Cc1ccncc1)NC(=O)[C@H](CC(=O)O)NC(=O)[C@H](CO)NC(=O)[C@@H](NC(=O)[C@](C)(Cc1ccccc1F)NC(=O)[C@@H](NC(=O)CNC(=O)[C@H](CCC(=O)O)NC(=O)C(C)(C)NC(=O)[C@@H](N)Cc1ccc(O)cc1)[C@@H](C)O)[C@@H](C)O)[C@@H](C)CC)C(=O)N[C@@H](C)C(=O)N[C@@H](CCC(N)=O)C(=O)NC(C)(C)C(=O)N[C@@H](CCC(=O)O)C(=O)N[C@@H](Cc1ccccc1)C(=O)N[C@H](C(=O)N[C@H](CCC(=O)O)C(=O)N[C@@](C)(Cc1ccc(O)cc1)C(=O)N[C@@H](CC(C)C)C(=O)N[C@H](C(=O)N[C@@H](CCCCNC(=O)COCCOCCNC(=O)COCCOCCNC(=O)CC[C@H](NC(=O)CCCCCCCCCCC)C(=O)O)C(=O)NCC(=O)NCC(N)=O)[C@@H](C)CC)[C@@H](C)CC)C(=O)O [Example 296] (H-Y[Aib]EGT[αMePhe(2-F)]TSD[4Pal]SI[αMeL]LD[Orn]K([AEEA-AEEA-γGlu-Lauroyl])AQ[Aib]EFI[dE][αMeY]LIK([AEEA-AEEA-γGlu-Lauroyl])GG-NH2; N-terminus assumed) | – | 109% | 0.108 nM | > 9950 nM | – | – | 0.0121 nM | 109% | > 9950 nM | 0.823 nM | 91.9% | – | – |

From patent publication US20230265151A1, “GIP/GLP1 CO-AGONIST COMPOUNDS” (priority 2020, published 2023)
